According to the supplement of paper PMC8671470:

How the values were obtained:
Conditions in all cases: 72 h
NOMO-1 = system: NOMO-1
In short: (§1)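 Fifteen myeloid leukaemia lines in RPMI 1640 were treated for 72 h at 37 °C and 5% CO2 with five tenfold doses from 1 to 10,000 nM, in duplicate. ATP luminescence was normalised to vehicle and to a positive control at 10 µM, then fitted with a four-parameter log-logistic model. The IC50 came from these fits.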

MOLM-13 = system: MOLM-13
In short: as §1

KG-1 = system: KG-1
In short: as §1

Mono-Mac-6 = system: Mono-Mac-6
In short: as §1

LAMA-84 = system: LAMA-84
In short: as §1

HL-60 = system: HL-60
In short: as §1

BV-173 = system: BV-173
In short: as §1

K-562 = system: K-562
In short: as §1

KU-812 = system: KU-812
In short: as §1

SHI-1 = system: SHI-1
In short: as §1

HEL = system: HEL
In short: as §1

THP-1 [1] = system: THP-1
In short: as §1

ML-2 = system: ML-2
In short: as §1

MV4-11 = system: MV4-11
In short: as §1

KCL-22 = system: KCL-22
In short: as §1

THP-1 [2] = assay: cell viability (% survival relative to DMSO control, bortezomib = 0%); higher = less cytotoxic
In short: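 Fifteen myeloid leukaemia cell lines (10 AML, 5 CML) were seeded at a density titrated to the linear growth range into 384-well plates pre-printed with compounds at 1, 10, 100, 1000 or 10000 nM in duplicate. Plates were incubated for 72 h at 37 °C with 5% CO2. Viability was then read by CellTiter-Glo luminescence. Each value is percent survival averaged over the duplicates, with vehicle set to 100% and a 10 µM positive control to 0%.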

Row | SMILES | IC50 (cell viability) (NOMO-1) | IC50 (cell viability) (MOLM-13) | IC50 (cell viability) (KG-1) | IC50 (cell viability) (Mono-Mac-6) | IC50 (cell viability) (LAMA-84) | IC50 (cell viability) (HL-60) | IC50 (cell viability) (BV-173) | IC50 (cell viability) (K-562) | IC50 (cell viability) (KU-812) | IC50 (cell viability) (SHI-1) | IC50 (cell viability) (HEL) | IC50 (cell viability) (THP-1 [1]) | IC50 (cell viability) (ML-2) | IC50 (cell viability) (MV4-11) | IC50 (cell viability) (KCL-22) | cell viability (THP-1 [2]; 1 nM) | cell viability (THP-1 [2]; 10 nM) | cell viability (THP-1 [2]; 100 nM) | cell viability (THP-1 [2]; 1000 nM) | cell viability (THP-1 [2]; 10000 nM)
1 | C#Cc1cnc(O)nc1O [Eniluracil] | > 10 µM | > 10 µM | > 10 µM | > 10 µM | > 10 µM | > 10 µM | > 10 µM | > 10 µM | > 10 µM | > 10 µM | > 10 µM | > 10 µM | > 10 µM | > 10 µM | > 10 µM | 97.4% | 102% | 109% | 110% | 102%
2 | CC(/C=C1\SC(=S)N(CC(=O)O)C1=O)=C\c1ccccc1 [Epalrestat] | > 10 µM | > 10 µM | > 10 µM | > 10 µM | > 10 µM | > 10 µM | > 10 µM | > 10 µM | > 10 µM | > 10 µM | > 10 µM | > 10 µM | > 10 µM | > 10 µM | > 10 µM | 101% | 95.6% | 115% | 102% | 103%
3 | CCOC(=O)[C@@]1(CCCCCCOc2ccc(Cl)cc2)CO1 [Etomoxir] | > 10 µM | > 10 µM | > 10 µM | > 10 µM | 5.83 µM | > 10 µM | 6.76 µM | > 10 µM | > 10 µM | > 10 µM | > 10 µM | > 10 µM | > 10 µM | > 10 µM | > 10 µM | 98.3% | 105% | 97.3% | 96.4% | 102%
4 | Cc1c(-c2ccccc2)oc2c(C(=O)OCCN3CCCCC3)cccc2c1=O.Cl [Flavoxate] | > 10 µM | > 10 µM | > 10 µM | > 10 µM | > 10 µM | > 10 µM | > 10 µM | > 10 µM | > 10 µM | > 10 µM | > 10 µM | > 10 µM | > 10 µM | > 10 µM | > 10 µM | 93.5% | 97.7% | 93.5% | 96.6% | 109%
5 | O=C(O)CCc1ccc(NCc2cccc(Oc3ccccc3)c2)cc1 [GW9508] | > 10 µM | > 10 µM | > 10 µM | > 10 µM | > 10 µM | > 10 µM | > 10 µM | > 10 µM | > 10 µM | > 10 µM | > 10 µM | > 10 µM | > 10 µM | > 10 µM | > 10 µM | 95.1% | 101% | 104% | 111% | 111%
6 | c1ccc2c(c1)OCC(=C1NCCN1)O2 [Idazoxan] | > 10 µM | > 10 µM | > 10 µM | > 10 µM | > 10 µM | > 10 µM | > 10 µM | > 10 µM | > 10 µM | > 10 µM | > 10 µM | > 10 µM | > 10 µM | > 10 µM | > 10 µM | 104% | 107% | 83.3% | 91.4% | 103%
7 | C[C@]12O[C@H](C[C@]1(O)CO)n1c3ccccc3c3c4c(c5c6ccccc6n2c5c31)CNC4=O [Lestaurtinib] | 0.188 µM | 0.00461 µM | 0.0227 µM | 0.0143 µM | 0.0512 µM | 0.0912 µM | 0.0201 µM | 0.182 µM | 0.0467 µM | 0.0633 µM | 0.0504 µM | 0.848 µM | 0.139 µM | 0.00331 µM | 0.149 µM | 94.4% | 105% | 87.2% | 46% | 0.505%
8 | O=C(O)c1nn(Cc2ccc(Cl)cc2Cl)c2ccccc12 [Lonidamine] | > 10 µM | > 10 µM | > 10 µM | > 10 µM | > 10 µM | > 10 µM | > 10 µM | > 10 µM | > 10 µM | > 10 µM | > 10 µM | > 10 µM | > 10 µM | > 10 µM | > 10 µM | 107% | 97% | 102% | 99.3% | 101%
9 | C1CCc2nnc(C34CC5CC(CC(C5)C3)C4)n2CC1 [MERCK-544] | > 10 µM | > 10 µM | > 10 µM | > 10 µM | > 10 µM | > 10 µM | > 10 µM | > 10 µM | > 10 µM | > 10 µM | > 10 µM | > 10 µM | > 10 µM | > 10 µM | > 10 µM | 102% | 107% | 93.7% | 102% | 91.1%
10 | CC(Cc1ccc(O)c(O)c1)C(C)Cc1ccc(O)c(O)c1 (stereo not given) [Masoprocol] | > 10 µM | > 10 µM | 6.63 µM | 2.08 µM | > 10 µM | 3.15 µM | 3.66 µM | > 10 µM | > 10 µM | > 10 µM | > 10 µM | > 10 µM | 3.42 µM | 3.8 µM | > 10 µM | 95.4% | 98.4% | 96.2% | 93.4% | 85.9%
11 | CC(C(=O)O)C(=O)O [Methylmalonate] | > 10 µM | > 10 µM | > 10 µM | > 10 µM | > 10 µM | > 10 µM | > 10 µM | > 10 µM | > 10 µM | > 10 µM | > 10 µM | > 10 µM | > 10 µM | > 10 µM | > 10 µM | 98.5% | 94.5% | 101% | 103% | 87.6%
12 | COc1c(C)c2c(c(O)c1C/C=C(\C)CCC(=O)O)C(=O)OC2 [Mycophenolic acid] | 2.55 µM | 0.183 µM | 2.34 µM | 1.83 µM | 0.771 µM | 0.652 µM | 0.679 µM | 0.561 µM | 0.954 µM | 2.52 µM | 1.01 µM | > 10 µM | 0.333 µM | 0.507 µM | 0.289 µM | 112% | 95.7% | 103% | 97.5% | 59.2%
13 | C1CCC(C(CC2CCCCN2)C2CCCCC2)CC1.O=C(O)/C=C\C(=O)O (stereo not given) [Perhexiline] | 6.5 µM | 2.66 µM | 3.23 µM | 3.55 µM | 4.23 µM | 2.85 µM | 3.34 µM | 3.35 µM | 3.99 µM | 3.28 µM | 3.23 µM | 2.55 µM | 3.43 µM | 2.73 µM | 3.63 µM | 101% | 93.8% | 100% | 89% | -0.129%
